Experiments:
[1] = Inhibitory activity against the growth of LCC6-WT (human breast carcinoma) cell line after 72 hours of drug exposure; type: functional
MCF7 [2] = assay: Inhibitory activity against the growth of MCF-7 (human breast carcinoma) cell line after 72 hours of drug exposure; type: functional, cell-based; settings: MCF7, 72 h
MCF7 [3] = assay: Inhibitory activity against the growth of MCF-7R ( multi drug resistant human breast carcinoma) cell line after 72 hours of drug exposure; type: functional, cell-based; settings: MCF7, 72 h
[4] = Inhibitory activity against the growth of LCC6-MDR (Multi Drug Resistant 1 transduced line) cell line after 72 hours of drug exposure; type: functional; settings: Homo sapiens, LCC6MDR
MCF7 [5] = assay: Ratio of activities, drug resistant (R) to drug sensitive (S) carcinoma cell lines; type: functional, Homo sapiens

In the case of CCC(=O)O[C@H]1C(=O)[C@@]2(C)C([C@H](OC(=O)c3cccc(OC)c3)[C@]3(O)C[C@H](OC(=O)[C@H](O)[C@@H](NC(=O)OC(C)(C)C)[C@H]4CC4(C)C)C(C)=C1C3(C)C)[C@]1(OC(C)=O)CO[C@@H]1C[C@@H]2O (some centres undefined), the IC50 [1] is reported as 0.48 nM, the IC50 (MCF7 [2]) is reported as 0.6 nM and the IC50 (MCF7 [3]) is reported as 1.5 nM.
Molecule CCC(=O)O[C@H]1C(=O)[C@@]2(C)C([C@H](OC(=O)c3cccc(F)c3)[C@]3(O)C[C@H](OC(=O)[C@H](O)[C@H](C=C(C)C)NC(=O)OC(C)(C)C)C(C)=C1C3(C)C)[C@]1(OC(C)=O)CO[C@@H]1C[C@@H]2O (some centres undefined) has an IC50 [1] of 0.5 nM.
COc1cccc(C(=O)O[C@H]2C3[C@](C)(C(=O)[C@H](OC(C)=O)C4=C(C)[C@@H](OC(=O)[C@H](O)[C@H](C=C(C)C)NC(=O)OC(C)(C)C)C[C@]2(O)C4(C)C)[C@@H](O)C[C@H]2OC[C@@]32OC(C)=O)c1 (some centres undefined) showed an IC50 [1] of 0.6 nM, an IC50 (MCF7 [2]) of 0.8 nM and an IC50 (MCF7 [3]) of 2.3 nM.
Work on CCC(=O)O[C@H]1C(=O)[C@@]2(C)C([C@H](OC(=O)c3cccc(OC)c3)[C@]3(O)C[C@H](OC(=O)[C@H](O)[C@@H](NC(=O)OC(C)(C)C)C(F)F)C(C)=C1C3(C)C)[C@]1(OC(C)=O)CO[C@@H]1C[C@@H]2O (some centres undefined) yielded an IC50 [1] of 1.5 nM, an IC50 (MCF7 [2]) of 0.4 nM and an IC50 (MCF7 [3]) of 4.3 nM.
COc1cccc(C(=O)O[C@H]2C3[C@](C)(C(=O)[C@H](OC(=O)C4CC4)C4=C(C)[C@@H](OC(=O)[C@H](O)[C@H](C=C(C)C)NC(=O)OC(C)(C)C)C[C@]2(O)C4(C)C)[C@@H](O)C[C@H]2OC[C@@]32OC(C)=O)c1 (some centres undefined) gave an IC50 [1] of 1 nM, an IC50 [4] of 2.9 nM and a Ratio (MCF7 [5]) of 2.9.
Work on C=CCC[C@H](NC(=O)OC(C)(C)C)[C@@H](O)C(=O)O[C@H]1C[C@@]2(O)[C@@H](OC(=O)c3cccc(OC)c3)C3[C@](C)(C(=O)[C@H](OC(=O)CC)C(=C1C)C2(C)C)[C@@H](O)C[C@H]1OC[C@@]31OC(C)=O (some centres undefined) yielded an IC50 [1] of 0.9 nM, an IC50 (MCF7 [2]) of 2 nM and an IC50 (MCF7 [3]) of 7.7 nM.
In the case of CCC(=O)O[C@H]1C(=O)[C@@]2(C)C([C@H](OC(=O)c3cccc(F)c3)[C@]3(O)C[C@H](OC(=O)[C@H](O)[C@H](CC(C)C)NC(=O)OC(C)(C)C)C(C)=C1C3(C)C)[C@]1(OC(C)=O)CO[C@@H]1C[C@@H]2O (some centres undefined), the IC50 [1] is reported as 0.4 nM.
C/C=C\[C@H](NC(=O)OC(C)(C)C)[C@@H](O)C(=O)O[C@H]1C[C@@]2(O)[C@@H](OC(=O)c3cccc(OC)c3)C3[C@](C)(C(=O)[C@H](OC(=O)CC)C(=C1C)C2(C)C)[C@@H](O)C[C@H]1OC[C@@]31OC(C)=O (some centres undefined) showed an IC50 [1] of 1.2 nM.
With CCC(=O)O[C@H]1C(=O)[C@@]2(C)C([C@H](OC(=O)c3cccc(Cl)c3)[C@]3(O)C[C@H](OC(=O)[C@H](O)[C@H](C=C(C)C)NC(=O)OC(C)(C)C)C(C)=C1C3(C)C)[C@]1(OC(C)=O)CO[C@@H]1C[C@@H]2O (some centres undefined) the IC50 [1] was 0.8 nM.
With CCC(=O)O[C@H]1C(=O)[C@@]2(C)C([C@H](OC(=O)c3cccc(N=[N+]=[N-])c3)[C@]3(O)C[C@H](OC(=O)[C@H](O)[C@H](CC(C)C)NC(=O)OC(C)(C)C)C(C)=C1C3(C)C)[C@]1(OC(C)=O)CO[C@@H]1C[C@@H]2O (some centres undefined) the IC50 [1] was 1.1 nM, the IC50 (MCF7 [2]) was 1 nM and the IC50 (MCF7 [3]) was 2.1 nM.
For CCC(=O)O[C@H]1C(=O)[C@@]2(C)C([C@H](OC(=O)c3cccc(OC)c3)[C@]3(O)C[C@H](OC(=O)[C@H](O)[C@H](C=C(C)C)NC(=O)OC(C)(C)C)C(C)=C1C3(C)C)[C@]1(OC(C)=O)CO[C@@H]1C[C@@H]2O (some centres undefined), the IC50 [1] was 1 nM, the IC50 (MCF7 [2]) was 0.36 nM and the IC50 (MCF7 [3]) was 0.33 nM.
Work on C=CC[C@H](NC(=O)OC(C)(C)C)[C@@H](O)C(=O)O[C@H]1C[C@@]2(O)[C@@H](OC(=O)c3cccc(OC)c3)C3[C@](C)(C(=O)[C@H](OC(=O)CC)C(=C1C)C2(C)C)[C@@H](O)C[C@H]1OC[C@@]31OC(C)=O (some centres undefined) yielded an IC50 [1] of 1.2 nM, an IC50 (MCF7 [2]) of 0.8 nM and an IC50 (MCF7 [3]) of 8.7 nM.
Molecule CC(=O)O[C@H]1C(=O)[C@@]2(C)C([C@H](OC(=O)c3cccc(C)c3)[C@]3(O)C[C@H](OC(=O)[C@H](O)[C@H](C=C(C)C)NC(=O)OC(C)(C)C)C(C)=C1C3(C)C)[C@]1(OC(C)=O)CO[C@@H]1C[C@@H]2O (some centres undefined) has an IC50 [1] of 1.5 nM, an IC50 (MCF7 [2]) of 0.8 nM and an IC50 (MCF7 [3]) of 5 nM.
With C=Cc1cccc(C(=O)O[C@H]2C3[C@](C)(C(=O)[C@H](OC(=O)CC)C4=C(C)[C@@H](OC(=O)[C@H](O)[C@H](C=C(C)C)NC(=O)OC(C)(C)C)C[C@]2(O)C4(C)C)[C@@H](O)C[C@H]2OC[C@@]32OC(C)=O)c1 (some centres undefined) the IC50 [1] was 2.9 nM.
In the case of CCC(=O)O[C@H]1C(=O)[C@@]2(C)C([C@H](OC(=O)c3cccc(N=[N+]=[N-])c3)[C@]3(O)C[C@H](OC(=O)[C@H](O)[C@H](C=C(C)C)NC(=O)OC(C)(C)C)C(C)=C1C3(C)C)[C@]1(OC(C)=O)CO[C@@H]1C[C@@H]2O (some centres undefined), the IC50 [1] is reported as 0.9 nM, the IC50 (MCF7 [2]) is reported as 0.9 nM and the IC50 (MCF7 [3]) is reported as 1.1 nM.
Work on CC(=O)O[C@@]12CO[C@@H]1C[C@H](O)[C@@]1(C)C(=O)[C@H](O)C3=C(C)[C@@H](OC(=O)[C@H](O)[C@@H](NC(=O)OC(C)(C)C)c4ccccc4)C[C@@](O)([C@@H](OC(=O)c4ccccc4)[C@H]21)C3(C)C.O.O.O [DOCETAXEL] yielded an IC50 [1] of 1 nM and an IC50 [4] of 120 nM.
Work on CC(=O)O[C@H]1C(=O)[C@@]2(C)[C@H]([C@H](OC(=O)c3ccccc3)[C@]3(O)C[C@H](OC(=O)[C@H](O)[C@@H](NC(=O)c4ccccc4)c4ccccc4)C(C)=C1C3(C)C)[C@]1(OC(C)=O)CO[C@@H]1C[C@@H]2O [PACLITAXEL] yielded an IC50 [1] of 3.1 nM and an IC50 [4] of 346 nM.
